Measured values from paper PMC6447718, “PACAP-38 and PACAP(6–38) Degranulate Rat Meningeal Mast Cells via the Orphan MrgB3-Receptor” (Frontiers in Cellular Neuroscience, 2019).
Entries after “also recorded” stand apart in the source; their conditions may differ. Read-outs that look alike come from different tables or passages of the source.

Experiments:
[1] = system: rat peritoneal mast cells; details: ref Baun et al., 2012, cited from earlier work; for peritoneal mast cell degranulation (result in words): rat peritoneal mast cells
From the text: Inspired by clinical findings, we have previously characterized the degranulating effect of various PACAP-analogues on isolated rat peritoneal mast cells. Based on the expectation that degranulation is mediated through the PAC1-receptor, we found an unpredicted order of potency (Baun et al., [2012]).

rat meningeal mast cells = experiment: Mast cell degranulation in hemi-skull preparations (dura mater, toluidine blue staining, microscopic count); type: cell-based, rat (male Sprague-Dawley); details: for degranulated meningeal mast cells in % of total number of mast cells: 30 s incubation, mean ± SEM; for mast cell degranulation: Figure 4A, PACAP-27 n = 6, maxadilan n = 5, mean ± SEM; for mast cell degranulation (result in words): 0.1 to 10 μM, rat meningeal mast cells
Protocol: Mast cell degranulation was performed as previously described (Pedersen et al., [2015]). In brief, skulls were cut mid-sagittal and the brain halves were removed, leaving the dura mater undisturbed. This was followed by immediate addition of either 350 μl 0.1, 1 or 10 μM PACAP-38 (custom synthesis by Caslo Laboratory ApS, Lyngby, Denmark) or vehicle (saline) in phosphate buffered saline (PBS). After 30 s incubation, the reactions were terminated, and the skulls were fixated in 4% paraformaldehyde in phosphate buffered saline (PBS; Glostrup Hospital Pharmacy, Denmark). The dura mater was dissected from the skull, whole mounted on slides, and mast cells were visualized by staining with 0.1% acidified toluidine blue (Sigma Aldrich, Germany). Tissues were dehydrated in graded alcohols prior to cover slip mounting. The level of mast cell degranulation was evaluated by 400× magnification (Nikon Eclipse Ni microscope) by a researcher blinded to the treatment and was counted in 10 consecutive fields along the stem part of the middle meningeal artery. Mast cells were considered degranulated if an extensive dispersion of more than 10 extruded granules were localized outside the cell or if an extensive loss of staining gave the cell a “ghostly” look.
(§1) Concentration-response curves for both oocytes and dural mast cells were analyzed for overall effects of PACAP-38 and -27 by two-way analyses of variance (ANOVA) followed by Sidak’s test for multiple pairwise comparisons. Effects of PAC1-receptor ligands on mast cell degranulation or on receptor-expressing oocytes were analyzed with a one-way ANOVA followed by Tukey’s multiple comparisons test. The effect of PACAP-38 and PACAP(6–38) on MrgB3-expressing oocytes were analyzed by an unpaired two-tailed t-test. Differences between groups were considered significant when p < 0.05 and data are presented as mean with standard error of the mean (±SEM). GraphPad Prism 7 (GraphPad Prism Software, San Diego, CA, USA) was used for statistical analysis.

un-injected oocytes = experiment: Two-electrode voltage clamp on un-injected Xenopus laevis oocytes (control); type: cell-based; details: for delayed long-lasting response in un-injected oocytes: 10 μM; for currents in un-injected oocytes (result in words): same concentrations as in receptor-expressing oocytes (0.1–3 μM; maxadilan up to 10 μM), data not shown
Protocol: (§2) Stage V and VI defolliculated Xenopus laevis oocytes were purchased from EcoCyte Bioscience (Dortmund, Germany) and kept in Kulori medium (90 mM NaCl, 4 mM KCl, 1 mM MgCl2, 1 mM CaCl2, and 5 mM Hepes, pH 7.4). Oocytes were micro-injected with 50 nl mRNA solution containing 30 ng RNA per oocyte and incubated at 19°C. Currents were measured after 2–5 days using a conventional two-electrode-voltage clamp (TEVC). The oocytes were placed in a 200 μl chamber and continuously exposed to a flow of Kulori medium with or without ligands (1 ml/min) while impaled with both a current and a voltage electrode filled with 3 M KCl and connected to an Oocyte Clamp Amplifier [Warner Instruments Corp. (OC-725 B) and a PC-interface (Digidata1440A, Molecular Devices)]. Current amplitude in absence or presence of ligands were analyzed using pClamp 10.2 software (Molecular Devices). All experiments were performed with oocyte membrane voltages constantly clamped to −70 mV and the temperature was kept between 19 and 22°C. In activation experiments, non-responding as well as low-responding (<10 nA) oocytes were excluded from the dataset. Ligands PACAP-38, PACAP-27, PACAP(6–38) were custom synthetized by Caslo (Lyngby, Denmark) while maxadilan was purchased from Bachem (Bubendorf, Switzerland).

[2] = system: MrgB3-receptor (RGD1560730); experiment: Two-electrode voltage clamp on MrgB3-receptor-expressing Xenopus laevis oocytes; type: cell-based, rat; details: for activation of MrgB3-receptor (result in words): 1–10 μM, holding potential −70 mV
From the text: (§3) DNA of the coding region of Rattus Norvegicus Adcyap1r1 variant 5 (NM_001270582.1) encoding the null-splice variant (short N-terminal and neither exon 14 or 15) of the PAC1-receptor (Vector: EX-Rn10199-M03) was ordered from GeneCopoeia. DNA encoding the RGD1560730 gene (XM_006229262.3, GenScript), was cloned into the pXOOM vector as previously described (Jespersen et al., [2002]). DNA was purified using Plasmid DNA Purification NucleoBond Xtra Midi-kit (Macherey-Nagel). […] Extracted plasmids were linearized down-stream the poly(A) segment using the XhoI restriction enzyme (New England Biolabs, Ipswich, MA, USA). RNA was in vitro transcribed by synthetization from the T7 RNA polymerase promoter using the mMessenger mMachine kit (Ambion) according to manufacturer’s protocol. Messenger RNA was purified using the MEGAclear kit (Ambion). Transcribed RNA integrity was assessed by agarose gel electrophoresis.
as §2, §1

VPAC2-receptor = system: VPAC2-receptor; design: method as in Harmar et al., 2012; details: PACAP-38, PACAP-27 and VIP compared; ref Harmar et al., 2012; cited from earlier work
VPAC1-receptor = system: VPAC1-receptor; design: method as in Harmar et al., 2012; details: PACAP-38, PACAP-27 and VIP compared; ref Harmar et al., 2012; cited from earlier work
PAC1-receptor = details: presence of 21-amino acid domain in extracellular N-terminal domain (PAC1-full, short); ref Pantaloni et al., 1996; cited from earlier work
From the text: Pituitary adenylate cyclase-activating peptide-38 (PACAP-38) is a 38-amino acid neuropeptide located in both sensory and parasympathetic perivascular nerve fibers (Moller et al., [1993]; Mulder et al., [1994]). A C-terminal truncated 27-amino acid (PACAP-27) version is endogenously present as well but is less abundant (Miyata et al., [1990]; Arimura et al., [1991]; Ogi et al., [1993]). […] At present, three PACAP-receptors have been identified: PA ... || Several different splice variants of the PAC1-receptor have been identified in rats. Splice sites in the extracellular N-terminal domain and the third intracellular loop account for fine tuning of ligand affinity and signal transduction through adenylate cyclase or PLC activation (Deutsch and Sun, [1992]; Spengler et al., [1993]).

[3] = system: PAC1-receptor (Rattus Norvegicus Adcyap1r1 variant 5, null-splice variant); type: cell-based
From the text: as §3, §2, §1

[4] = system: calcitonin gene-related peptide (CGRP) release from the trigeminal nucleus caudalis; details: ref Jansen-Olesen et al., 2014; cited from earlier work
From the text: Future studies will have to rule out if MrgB3-receptors are involved in PACAP- ...

migraine patients = details: ref Schytz et al., 2009, cited from earlier work
From the text: Pituitary adenylate cyclase-activating peptide-38 (PACAP-38) is a 38-amino acid neuropeptide located in both sensory and parasympathetic perivascular nerve fibers (Moller et al., [1993]; Mulder et al., [1994]). A C-terminal truncated 27-amino acid (PACAP-27) version is endogenously present as well but is less abundant (Miyata et al., [1990]; Arimura et al., [1991]; Ogi et al., [1993]). […] Degranulation of mast cells can be induced either by an allergen-IgE-dependent mechanism or via an IgE-independent mechanism. The latter mechanism can be activated by a group of molecules known as basic secretagogues.

[5] = 10.0 μM, n = 6, **** p < 0.0001 for PACAP-38 (two-way ANOVA, Sidak's test)

Compound | effect of inhibitor on PACAP-38-induced degranulation (result in words) [1] | degranulated meningeal mast cells in % of total number of mast cells (rat meningeal mast cells; 0.1 μM, n = 5) [% degranulation] | degranulated meningeal mast cells in % of total number of mast cells (rat meningeal mast cells; 1.0 μM, n = 6) [% degranulation] | degranulated meningeal mast cells in % of total number of mast cells (rat meningeal mast cells; [5]) | mast cell degranulation (rat meningeal mast cells; 10 μM, 30 s) [%] | mast cell degranulation (result in words) (rat meningeal mast cells; 30 s) | delayed long-lasting response in un-injected oocytes (un-injected oocytes) | currents in un-injected oocytes (result in words) (un-injected oocytes) | activation of MrgB3-receptor (result in words) [2] | profile on VPAC2-receptor (result in words) (VPAC2-receptor) | profile on VPAC1-receptor (result in words) (VPAC1-receptor) | effect of 21-amino acid N-terminal domain of PAC1 on binding (result in words) (PAC1-receptor) | peritoneal mast cell degranulation (result in words) [1] | activation of PAC1-receptor / relative potency (result in words) [3] | release of CGRP from the trigeminal nucleus caudalis (result in words) [4] | current ([2]; up to 10 μM, −70 mV, Figure 4C, n = 9, mean ± SEM) [μA] | activation of PAC1-receptor / relative potency (result in words) ([3]; 0.01 to 1 μM, holding potential −70 mV) | increase in mast cell degranulation (rat meningeal mast cells; 10 μM, 30 s, p < 0.0001) | migraine attacks / headache after infusion (result in words) (migraine patients; PACAP-38: 20-min intravenous infusion) | adverse events after infusion (result in words) (migraine patients; infusion, terminated by antihistamine treatment)
Nc1ncnc2c1ncn2C1CCCO1 (stereo not drawn) [SQ22536] | ineffective | – | – | – | – | – | – | – | – | – | – | – | – | – | – | – | – | – | – | –
COc1ccc2c(c1)CC[C@@H]1[C@@H]2CC[C@]2(C)[C@@H](NCCCCCCN3C(=O)C=CC3=O)CC[C@@H]12 [U-73122] | impaired | – | – | – | – | – | – | – | – | – | – | – | – | – | – | – | – | – | – | –
Pituitary Adenylate Cyclase Activating Peptide-27 [PACAP-27] | – | 7.1 ± 3.2 | 16.9 ± 5.5 | 12.1 ± 3.8 % degranulation | 12 ± 4 | did not induce mast cell degranulation that was significantly different from saline treatment; also recorded: unresponsive | not PACAP-27 | Currents were not observed | not significantly different from baseline; also recorded: no change; also recorded: not PACAP-27 and maxadilan induces currents | equipotent | equipotent | impairs PACAP-27 binding | not PACAP-27 and VIP, caused degranulation; also recorded: weak degranulating effect | equipotent; also recorded: significant increase in membrane current; also recorded: activates the PAC1-receptor with apparently equal potencies | neither VIP, PACAP-27 nor maxadilan, mediated the release | – | – | – | – | –
maxadilan | – | – | – | – | 5 ± 2 | unresponsive | – | Currents were not observed | does not activate MrgB3-receptors; also recorded: no change; also recorded: not PACAP-27 and maxadilan induces currents | – | – | – | no effect on mast cell degranulation; also recorded: ineffective | – | neither VIP, PACAP-27 nor maxadilan, mediated the release | −0.03 ± 0 | activates the PAC1-receptor with apparently equal potencies; also recorded: equipotent | – | – | –
pituitary adenylate cyclase activating peptide-38 [PACAP-38] | – | 12.4 ± 3.8 | 17.9 ± 3.7 | 48.4 ± 6.2**** % degranulation | – | more potent mast cell degranulating agent than Pituitary Adenylate Cyclase Activating Peptide-27 (PACAP-27) in the meninges; also recorded: significant mast cell degranulation only was observed after stimulation with PACAP-38; also recorded: strong degranulation of meningeal mast cells | 15 out of 19 | Currents were not observed | only PACAP-38 induces a significant change in current; also recorded: rapid concentration-depended inward current; also recorded: caused a change in current; also recorded: induces currents | equipotent | equipotent | – | caused degranulation; also recorded: strong degranulation effect; also recorded: almost total mast cell degranulation within the first 10–20 s after application | equipotent; also recorded: significant increase in membrane current; also recorded: activates the PAC1-receptor with apparently equal potencies | mediated the release | – | – | eight-fold increase | provokes migraine attacks in migraine patients as well as headache in non-migraineurs | all participants in the clinical provocation studies experienced long-lasting flushing; also recorded: heat sensation and long-lasting flushing
